Experimental data taken from US20050164903A1, “Complexed surfactant system” (priority 2001, published 2005).
“And” between values parts separate entries of the source, which are not always exact repeats. Equal entries are not always repeated. “Also recorded” adds a separate entry of the source.

Tests used:
[1] = Phase stability (appearance) of sample solutions; conditions: for Phase stability (appearance of sample solution): 1% aqueous solution
Description: Concentration of a mixed system was controlled to 2% aqueous solution, and a mixing ratio of SLS and the cationic compound was controlled to 1:1 by mole ratio so that changes in physical properties could be remarkably shown (Table 1).

[2] = Surface tension and cmc, Kruss tensiometer K12; assay type: physicochemical
Method: Samples of which surface tensions were to be measured were prepared by mixing SLS and a cationic compound in a mole ratio of 1:1, wherein deionized water was used as water, and a container for measurement was immersed in a cleaning solution for more than 3 hours, washed with water and acetone, dried in an oven, and then used.
A ring method was used, and after measuring 5 times, a mean value was taken. Solutions of 1%, 0.1%, 0.01%, and 0.001% by weight ratio of each of the cationic compounds were prepared to use for the tests.

[3] = Foaming property (initial foamability and foam stability), semi-micro TK method; assay type: physicochemical; conditions: 1% solution
Description: As samples for measuring initial foamability and foam stability, samples prepared under the same conditions as those used for measuring Krafft point were used (Table 14). […] The semi-micro TK method was used for measurement, and mean values were taken after measuring three times.
The tests were repeated three times and a mean value was taken.
Experiments were repeated three times, and a mean value was taken. For the experiment, a 1% aqueous solution was used.

[4] = Stability to hard water (10,000 ppm CaCl2 hard water added until cloudiness); assay type: physicochemical; conditions: for Precipitation in hard water: 0.5% (weight ratio), 100 ml sample
Method: After dissolving 11.69 g of CaCl2.2H2O in 1 liter of water to prepare hard water of 10,000 ppm, it was slowly added to a 0.5% aqueous solution sample, and stability to hard water was evaluated using the amount of hard water added until cloudiness began.
Hard water of 10,000 ppm prepared by dissolving 11.69 g of CaCl2.2H2O in 1 L of water was used for the tests. Stability to hard water was measured by adding hard water until pearl is appear, using 0.5% (weight ratio) of the cationic compound and 100 ml of the sample. This test was repeated by three times, and a mean value was taken.
Hard water at a 10,000 ppm concentration prepared by dissolving 11.69 g of CaCl2.2H2O in 1 L of water was used for the experiments. […] The tests were repeated by three times, and a mean value was measured.

[5] = Measurement of Krafft point (cloudiness on cooling, transparency on re-heating); assay type: physicochemical; conditions: 1% solution
Method: In the Krafft point test, the temperature when the solution clouded through the previous test becomes transparent again while elevating the temperature were measured.
The temperature when cloudiness begins was measured while cooling the transparent cationic compound solution (condition of lowering temperature). Additionally, the temperature when the solution becomes transparent was measured while elevating the temperature of the cloudy solution (condition of elevating temperature).
Also, while elevating the temperature of the clouded solution, temperatures when the solutions became transparent again were measured (condition when elevating temperature).

[6] = Solubility noted for synthesized compounds; assay type: physicochemical; conditions: noted with the synthesis

| Surface tension ([2]; concentration 0.01%) [mN/m] | Surface tension ([2]; concentration 0.1%) [mN/m] | Surface tension ([2]; concentration 1%) [mN/m] | Solubility [6] | Compound | Phase stability (appearance of sample solution) [1] | Foaming property, result in words [3] | other results |
| --- | --- | --- | --- | --- | --- | --- | --- |
| 47.50 | 33.90 | 27.91 | – | 1.6-12-(N,N-methyloctylamino)ethanollhexane [Synthesis Example 17] | cloudiness | No foaming | Concentration at which the solution became transparent ([1]; cationic compound in water): 0.1 wt % |
| – | – | – | insoluble in acetone | C[N+](C)(C)CCO [Synthesis Example 5, N-(trimethylamino)ethanol] | – | – | – |
| 31.67 | 29.59 | 31.94 | – | CCCCCCCCCCCC[N+](C)(C)[O-] [Synthesis Example 19, N-Dimethyl Lauryl Amineoxide] | transparent | foam immediately disappeared | Surface tension ([2]; concentration 0.001%): 53.88 mN/m; Foaming property, initial foamability, 0 min. [3]: 210 mL; Foaming property, 1 min. ([3]; 1 min.): 55 mL; Precipitation in hard water [4]: not precipitated |
| – | – | – | soluble in acetone | N-(dimethyldodecylamino ethanol (EO)4 [Synthesis Example 7] | – | – | – |

Continued, compound first:

| Compound | Surface tension ([2]; concentration 0.01%) [mN/m] | Surface tension ([2]; concentration 0.1%) [mN/m] | Surface tension ([2]; concentration 1%) [mN/m] | Solubility [6] | Phase stability (appearance of sample solution) [1] | Foaming property, result in words [3] | other results |
| --- | --- | --- | --- | --- | --- | --- | --- |
| CCCCCCCCCCCCOS(=O)(=O)[O-].[Na+] [SLS, sodium lauryl sulfate, reference compound] | 57.18 | 25.19 | 35.92 | – | – | maintains foam for 5 minutes almost constantly | Foaming property, initial foamability, 0 min. [3]: 233 mL; Hard water concentration ([4]; stability to hard water): 310 ppm; Krafft point, when elevating temperature: solution transparent again [5]: 14 °C; Krafft point, when lowering (dropping) temperature: cloudiness begins ([5]; sulfate): 2˜3 °C and 2 °C and 2-3 °C |
| CCCCCCCC[N+](C)(C)CCO [Synthesis Example 2, N-(dimethyloctylamino)ethanol] | – | – | – | insoluble in acetone | – | – | – |
| CC[N+](C)(C)CCO [Synthesis Example 4, N-(dimethylethylamino)ethanol] | – | – | – | soluble in acetone, insoluble in n-hexane | – | – | – |
| C[N+](C)(CCO)CCCCCC[N+](C)(C)CCO.[I-].[I-] [Synthesis Example 14, 1,6-[2-(N,N-dimethylamino)ethanol]hexane] | 71.41 | 70.04 | 59.49 | – | transparent | did not produced foam; also recorded: No foaming | – |
| CCCC[N+](C)([O-])CCCCCC[N+](C)([O-])CCCC (stereo not drawn) [Synthesis Example 23, 16-(N,N-butylmethylamineoxyl)hexane] | 64.05 | 56.46 | 46.51 | – | transparent | did not produce foam | Precipitation in hard water [4]: not precipitated |
| N-(butyidimethylamino)ethanol [Synthesis Example 3] | – | – | – | insoluble in acetone | – | – | – |
